Measurements: patent US5635391A, “Isolated DNA encoding a nitrilase polypeptide, hosts containing, and expression thereof optionally assisted by a E. coli GroE chaperone polypeptide” (priority 1992, dated 1997)

Columns and labels:
purified nitrilase = target: T1, purified nitrilase (Comamonas testosteroni, UniProt Q59329); assay: Relative activity of the purified nitrilase on various nitriles; assay type: biochemical, Comamonas testosteroni sp.; settings: acetate buffer 10 mM, pH 4; substrate 10 mM; 25° C.
T1 construct: about 280 kDa oligomer of about 38 kDa subunits
Method: The activities of the purified nitrilase were measured on adiponitrile, 5-cyanovaleramide, 5-cyanovaleric acid, benzonitrile, propionitrile and acrylonitrile.
COMMON CONDITIONS: acetate buffer=10 mM, pH 4; substrate=10 mM; volume=3 ml; T=25° C.; reaction time=1 or 3 h; proteins: from 5 to 30 μg/ml.

E. coli TG1 pXL2158 = assay: Nitrilase activity of recombinant strain E. coli TG1 pXL2158; assay type: cell-based; settings: DW 1.25 g/l; 1 ml; pH 7.0; substrate 50 mM
Method: (§1) The activities of these strains, induced or non-induced, are measured on adiponitrile and 5-cyanovalerate at different pH values and are compared with the negative control strains: E. coli TG1, E. coli TG1 (pXL2035) and Pseudomonas putida G2081.
(§2) The cultures are carried out under the conditions described in Table 4. During the exponential growth phase, one of the two cultures of the recombinant strain is induced with 1 mM IPTG; after 2 h at 37° C., this culture is treated.
(§3) The conditions of the specific activity measurements and the results are collated in Table 5.
(§4) COMMON CONDITIONS: [substrate]=50 mM; T=25° C.; buffer 50 mM; kinetics over 90 min for 1 to 3 and over 120 min for 4 to 8.
(§5) ABBREVIATIONS: W=whole cells; S=sonicated cells; Ua=μmols of cyanovalerate produced/h; Ub=μmols of adipate produced/h; AdN=adiponitrile; CVA=5-cyanovalerate. DW=dry weight.

E. coli TG1 pXL2035,2158 = assay: Nitrilase activity of recombinant strain E. coli TG1 pXL2035,2158; assay type: cell-based; settings: DW 0.2 g/l; 1 ml; pH 7.0; substrate 50 mM
Method: as §1, §2, §3, §4, §5

E. coli TG1 pXL2087 = assay: Nitrilase activity of recombinant strain E. coli TG1 pXL2087; assay type: cell-based; settings: substrate 50 mM
Method: as §1, §2, §3, §4, §5

P. putida G2081 pXL2169 = assay: Nitrilase activity of recombinant strain P. putida G2081 pXL2169; assay type: cell-based, Pseudomonas putida; settings: no IPTG; whole cells; DW 0.25 g/l; 1 ml; pH 7.0; substrate 50 mM
Method: as §1, §2, §3, §4, §5

E. coli TG1 = assay: Nitrilase activity of control strain E. coli TG1; assay type: cell-based; settings: no IPTG, whole cells, DW 15.5 g/l, 1 ml, substrate 50 mM, 25° C.
Method: as §1, §2, §3, §4, §5

E. coli PXL2158 + 2035 [1] = assay: Hydrolysis of methiononitrile with free and resin-fixed cells of E. coli PXL2158 + 2035; assay type: cell-based; settings: test 15; free cells; dry cells 1.3 g/l; MetCN 50 mM; pH7; 28° C.
Method: The E. coli PXL 2158+2035 free cells are fixed on resin according to the technique described in U.S. Pat. No. 4,732,851, so as to form a biocatalyst.
CONDITIONS: volume=5 ml; potassium phosphate buffer=100 mM pH7, [MetCN]=50 mM; T 28° C.; kinetics over 3 h; DB=dry biocatalyst; DC=dry cells.
Two methiononitrile batches were tested: purified methiononitrile in the form of a sulfate and free methiononitrile.
CONDITIONS: volume=5 ml; potassium phosphate buffer=100 mM pH7; T 28° C.; kinetics over 3 h; *=percent with respect to the formed acid; DB=dry biocatalyst; DC=dry cells.

E. coli PXL2158 + 2035 [2] = assay: Hydrolysis of methiononitrile with E. coli PXL2158 + 2035 in suspension; assay type: cell-based; settings: for Initial specific activity: whole cells, DW 1.4 g/l, pH 7, 28° C.
Method: (§6) The recombinant strains used in this example are those from E. coli TG1, integrating the plasmids PXL2158 and PXL2035 described above and containing the nitrilase gene of Comamonas testosteroni.
(§7) Tests 9 to 13 show the nitrilase activity at 28° C., of these recombinant strains with respect to the methiononitrile, according to various operating conditions. The strain culture is performed as explained in example 6.1.The following Table 7 summarizes the conditions and the results of tests 9 to 13.

E. coli PXL2158 = assay: Hydrolysis of methiononitrile with E. coli PXL2158 in suspension; assay type: cell-based; settings: test 9; whole cells; MetCN 100 mM; DW 17.2 g/l; pH 7; 28° C.
Method: as §6, §7

T1 sequence (Q59329 entry or part of it): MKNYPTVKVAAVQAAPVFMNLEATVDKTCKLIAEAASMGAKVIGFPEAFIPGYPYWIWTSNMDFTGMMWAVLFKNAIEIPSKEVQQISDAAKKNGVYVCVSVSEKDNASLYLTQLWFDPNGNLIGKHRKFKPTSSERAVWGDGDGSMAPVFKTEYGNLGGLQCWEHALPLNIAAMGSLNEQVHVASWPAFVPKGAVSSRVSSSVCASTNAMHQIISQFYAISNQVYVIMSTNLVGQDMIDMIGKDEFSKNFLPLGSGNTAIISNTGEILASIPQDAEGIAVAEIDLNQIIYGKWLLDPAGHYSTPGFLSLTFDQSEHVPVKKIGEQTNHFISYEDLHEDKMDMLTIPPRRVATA

SMILES: N#CCCCCC(N)=O [5-Cyanovaleramide, 5-cyanovaleramide]
- RELATIVE ACTIVITY (purified nitrilase): 28%

SMILES: N#CCCCCC(=O)O [5-Cyanovalerate, 5-cyanovalerate]
- Activity Ub (E. coli TG1 pXL2158): 8.3 μmols of adipate produced/h
- Activity Ub (E. coli TG1 pXL2035,2158): 70 μmols of adipate produced/h
- Activity Ub (E. coli TG1 pXL2087; +IPTG, sonicated cells, DW 1.4 g/l, 1 ml, pH 5.2): 25 μmols of adipate produced/h
- Activity Ub (E. coli TG1 pXL2087; +IPTG, sonicated cells, DW 1.4 g/l, 2 ml, pH 7.0): 8 μmols of adipate produced/h
- Activity Ub (E. coli TG1 pXL2087; +IPTG, whole cells, DW 1.4 g/l, 1 ml, pH 4.0): 28 μmols of adipate produced/h
- Activity Ub (E. coli TG1 pXL2087; +IPTG, whole cells, DW 1.4 g/l, 1 ml, pH 5.2): 27 μmols of adipate produced/h
- Activity Ub (E. coli TG1 pXL2087; +IPTG, whole cells, DW 1.4 g/l, 2 ml, pH 7.0): 8 μmols of adipate produced/h
- Activity Ub (E. coli TG1 pXL2087; no IPTG, sonicated cells, DW 1.0 g/l, 1 ml, pH 5.2): 13 μmols of adipate produced/h
- Activity Ub (E. coli TG1 pXL2087; no IPTG, sonicated cells, DW 1.0 g/l, 1 ml, pH 7.0): 3.2 μmols of adipate produced/h
- Activity Ub (E. coli TG1 pXL2087; no IPTG, whole cells, DW 1.2 g/l, 2 ml, pH 4.0): 10 μmols of adipate produced/h
- Activity Ub (E. coli TG1 pXL2087; no IPTG, whole cells, DW 1.2 g/l, 2 ml, pH 5.2): 14 μmols of adipate produced/h
- Activity Ub (E. coli TG1 pXL2087; no IPTG, whole cells, DW 1.2 g/l, 2 ml, pH 7.0): 3.4 μmols of adipate produced/h
- Activity Ua (P. putida G2081 pXL2169): 130 μmols of cyanovalerate produce
- Activity Ub (E. coli TG1; pH 5.2): 0 μmols of adipate produced/h
- Activity Ub (E. coli TG1; pH 7.0): 0 μmols of adipate produced/h

SMILES: C=CC#N [Acrylonitrile, acrylonitrile]
- RELATIVE ACTIVITY (purified nitrilase): 23%

SMILES: N#Cc1ccccc1 [Benzonitrile, benzonitrile]
- RELATIVE ACTIVITY (purified nitrilase): 4%

SMILES: CSCCC(N)C#N (stereo not drawn) [MetCN, methiononitrile]
- Specific Initial Activity (E. coli PXL2158 + 2035 [1]): 63 μmol/hx mg DC
- nitrilase activity (E. coli PXL2158 + 2035 [2]; comment on Table 7): about 80 μmol of MEtCN/hxmg of DW
- Initial specific activity (E. coli PXL2158 + 2035 [2]; test 10, MetCN 50 mM): 77 μmol/h x mg of DW
- Initial specific activity (E. coli PXL2158 + 2035 [2]; test 11, MetCN 50 mM): 62 μmol/h x mg of DW
- Initial specific activity (E. coli PXL2158 + 2035 [2]; test 12, MetCN 100 mM): 73 μmol/h x mg of DW
- Initial specific activity (E. coli PXL2158 + 2035 [2]; test 13, MetCN 200 mM): 61 μmol/h x mg of DW
- activity relative to E. coli PXL2158 alone (E. coli PXL2158 + 2035 [2]; tests 9 and 10): ~10 times
- Initial specific activity (E. coli PXL2158): 8 μmol/h x mg of DW

SMILES: CCC#N [Propionitrile, propionitrile]
- RELATIVE ACTIVITY (purified nitrilase): 6%
